In patent US11273176B2, “Use of PLA2G5-deficient suppressive macrophages in suppression of inflammation” (THE BRIGHAM AND WOMEN'S HOSPITAL, INC., priority 2016, dated 2022):

B1: IL-33: mouse rIL-33 (R&D Systems) given intranasally or added to ILC2 cultures (protein, UniProt Q8BVZ5 1-266, looked up)
Interleukin-33: MRPRMKYSNSKISPAKFSSTAGEALVPPCKIRRSQQKTKEFCHVYCMRLRSGLTIRKETSYFRKEPTKRYSLKSGTKHEENFSAYPRDSRKRSLLGSIQAFAASVDTLSIQGTSLLTQSPASLSTYNDQSVSFVLENGCYVINVDDSGKDQEQDQVLLRYYESPCPASQSGDGVDGKKLMVNMSPIKDTDIWLHANDKDYSVELQRGDVSPPEQAFFVLHKKSSDFVSFECKNLPGTYIGVKDNQLALVEEKDESCNNIMFKLSKI

How the values were obtained:
C57/BL6 Wt mice = assay: IL-33-induced pulmonary inflammation (intranasal r-IL-33 with or without LA/OA) in Wt mice; format: in vivo, mouse; conditions: for pulmonary inflammation: agent given alone
Description: (§1) C57/BL6 Wt and Pla2g5-null mice^46, 47 (9-12 wk-old males) received 25 μg of Alternaria haracter extract (Greer Laboratories, Lenoir, N.C.) in 20 uL of PBS or PBS alone intranasally on days 0, 3, 6 and 9 and euthanized 18 hours later^1 or a single dose of 100 μg and were euthanized after 1 h or 3 h^2. For IL-33-induced pulmonary inflammation, Wt and Pla2g5-null naïve mice were given mouse rIL-33 (R&D Systems, Minneapolis, Minn.) intranasally (i.n.) 100 ng/dose on days 0, 3, 6 and 9 with or without LA (132 nM)^28 or OA (106 nM), and mice were euthanized 18 hours after the last dose.
(§2) Lung were manually chopped to approximately 10 mm pieces, then digested in RPMI containing 428 U/ml Collagenase IV (Worthington, Lakewood, N.J.) and 20 mg/ml DNAse I (Roche, Mannheim, Germany) (30 min, 37° C.). After red cell lysis, the obtained cell suspension from single mouse was washed, and counted. After washing, cells were blocked (1 h, 4° C.) with 1% of rat anti mouse CD16/CD32 (BD Biosciences, San Jose, Calif.) and 10% donkey serum and then stained (1 h, 4° C.) with appropriate Abs. Mouse cells were stained with CD45 PercPCy5 (clone 30-F11, BioLegend, San Diego, Calif.), CD19 FITC (6D5, Biolegend), CD3 FITC (145-2C11, BioLegend), CD11b FITC (M1/70, BioLegend), CD11c PE-Cy7 FITC (N418, BioLegend), Ly6G/C FITC (RB6-8C5, eBiosciences), Nk1.1 FITC (PK136, Biolegend), FceR1 FITC (MAR-1, Biolegend), Siglec-F APC (E50-2440, BD Bioscience), Thy 1.2 APC (53-2.1, eBioscience, San Diego, Ca), ICOS (C398.4A, eBiosciences), Sca-1 (D7, eBioscieces), CD25 (PC61, eBiosciences), ST2 biotin (clone DJ8, MD Bioscience) followed by PE streptavidin (eBiosciences). In selected experiments cells were fixed with 4% paraformaldehyde (7 min, 21° C.), washed, permeabilized with 0.1% saponin (SigmaAldrich, St Louis, Ca) (7 min, 21° C.) and stained with CD68 APC (FA-11, AbD Serotec, Raleigh, Nc), IL-5 PE (TRFKS, Biolegend), IL-13 (eBio13A eBiosciences), IL-33 PE (396118, R&D Systems, Minneapolis, Minn.), rabbit polyclonal anti murine RELM-a (Peprotech, Rocky Hill N.J.)) and corresponding isotypes as controls. Acquisition was performed on a FACSCanto flow cytometer with FACSDiva software (BD Biosciences), and data were analyzed with FlowJo (Tree Star, Ashland, Oreg.).

Pla2g5-null mice = assay: IL-33-induced pulmonary inflammation (intranasal r-IL-33 with or without LA/OA) in Pla2g5-null mice; format: in vivo, mouse; conditions: for IL-33-induced eosinophilia (numbers of eosinophils), effect of FFA given with IL-33 / pulmonary inflammation: intranasal, 4 doses in 10 days; for pulmonary inflammation: agent given alone
Description: as §1, §2

Wt ILC2 = assay: In-vitro stimulation of sorted Wt ILC2, intracellular IL-5 by flow cytometry; format: cell-based, mouse; conditions: LA 200 μM, 8 h; for percentage of IL-5-expressing ILC2s: OA 200 μM or IL-33 30 ng/ml alone
Description: as §2
(§3) Wt and Pla2g5-null mice received four doses of 25 ug of Alternaria in 20 ul of PBS intranasally on day 0, 3, 6 and 9 and euthanized 18h later in order to expand ILC2 prior to FACs sorting. Sorting of ILC2 (CD45+ Lin− (CD3, CD19, Ly6g, CD11c, CD11b, Nk1.1, FcεR1^−), Thy1.2+) was performed using a FACSDiva 8.0.1 cell sorter (BD bio-science). Purified ILC2 (>98%) were rested for 40 hours with 10 ng/mL rIL-2 and rIL-7 (R&D Systems, Minneapolis, Minn.) in a 96 well around bottom plates (20000 cells per well). Prior to stimulation, the medium was changed to fresh medium. ILC2 were cultured with 30 ng/mL rIL-33 (R&D Systems), 200 μM Linoleic Acid (Cayman Chemical) or 200 μM Oleic Acid (Cayman Chemical)^22 or all together for 8h. For intracellular cytokine staining, 1 μl/mL of Golgi Plug (BD Bioscience) was added to ILC2 6h before collection for FACs analysis.

Pla2g5-null ILC2 = assay: In-vitro stimulation of sorted Pla2g5-null ILC2, intracellular IL-5 by flow cytometry; format: cell-based, mouse; conditions: LA 200 μM, 8 h; for percentage of IL-5-expressing ILC2s: OA 200 μM or IL-33 30 ng/ml alone; for IL-33-induced increase in IL-5 positive ILC2s, effect of FFA: OA 200 μM with IL-33 30 ng/ml
Description: as §2, §3

Molecule	IL-33-induced eosinophilia (numbers of eosinophils), effect of FFA given with IL-33 (C57/BL6 Wt mice; intranasal, 4 doses in 10 days)	pulmonary inflammation (C57/BL6 Wt mice; intranasal, 4 doses in 10 days)	IL-33-induced eosinophilia (numbers of eosinophils), effect of FFA given with IL-33 (Pla2g5-null mice)	pulmonary inflammation (Pla2g5-null mice)	percentage of IL-5-expressing ILC2s (Wt ILC2)	IL-33-induced expression of IL-5 by ILC2s, effect of FFA (Wt ILC2; OA 200 μM with IL-33 30 ng/ml)	percentage of IL-5-expressing ILC2s (Pla2g5-null ILC2)	IL-33-induced increase in IL-5 positive ILC2s, effect of FFA (Pla2g5-null ILC2)	numbers of eosinophils, ILC2s and Sca-1+ILC2 (C57/BL6 Wt mice; IL-33 i.n. over 10 days (100 ng/dose days 0, 3, 6, 9), homogenate lungs, flow cytometry)	macrophage activation (RELMα in macrophages) (C57/BL6 Wt mice; exogenous IL-33 for 10 days)	numbers of eosinophils, ILC2 and Sca-1+ILC2 (Pla2g5-null mice; IL-33 i.n. over 10 days, compared with Wt controls)	macrophage activation (RELMα in macrophages) (Pla2g5-null mice; exogenous IL-33 for 10 days)
CCCCC/C=C\C/C=C\CCCCCCCC(=O)O [LA, linoleic acid]	sharp potentiation	Neither LA nor OA alone caused pulmonary inflammation	failed to potentiate	Neither LA nor OA alone caused pulmonary inflammation	Neither LA nor OA induced significant IL-5 expression	significantly potentiated	Neither LA nor OA induced significant IL-5 expression	suppressed				
CCCCCCCC/C=C\CCCCCCCC(=O)O [OA, oleic acid]		Neither LA nor OA alone caused pulmonary inflammation	substantially enhance	Neither LA nor OA alone caused pulmonary inflammation	Neither LA nor OA induced significant IL-5 expression		Neither LA nor OA induced significant IL-5 expression	inactive				
B1		induces		insufficient	significantly increased		significantly increased		robustly increased	induced substantial macrophage activation	markedly diminished	markedly impaired
